Data from US20100190778A1, “3,4-DIHYDROBENZO[1,2,3]THIADIAZINE-1,1-DIOXIDE DERIVATIVES, PROCESS FOR PREPARATION THEREOF, MEDICAMENTS CONTAINING SAID DERIVATIVES AND THEIR USE” (EGIS GYOGYSZERGYAR NYILVANOSAN MUKODO RESZVENTARSASAG, priority 2006, published 2010).

Assays:
male Sprague-Dawley rats = assay: elevated maze test in the rat (anxiolytic effect); format: in vivo; details: per os, 60-min pretreatment, 5-min measurement, MED regarding time spent in the open arms and number of entries into the open arms
Protocol: Pharmacological activity of the compounds of the general Formula (I) has been evaluated in elevated maze test in the rat.
The tests were carried out according to the method of S. Fellow and coworkers (J. Neurosci. Methods. 1985, 14, 149-167). During the test, a wooden-floor cross elevated by 50 cm from the ground was used. The length and the width of the arms of the cross were 100 and 15 cm, respectively. Two opposite arms of the cross are fitted at the ends and both sides with black plexiglass wall of 40 cm height (closed arms). The central section of the cross measuring 15 by 15 cm is open. The other two opposite arms of the cross are not provided with walls (open arms).
The tests were carried out in male Sprague-Dawley rats weighing 200 to 220 g. After the 60-min pretreatment time (per os treatment), animals were placed in the center of the maze. During the 5-min measurement time, four variables were recorded: the time spent in the open arms; the time spent in the closed arms; the number of entries into the open arms; the number of entries into the closed arms.
Animals normally avoid the open and light parts of the maze, thereby spending little time therein only. The anxiolytic effect of the compounds of the general Formula (I) is indicated by the increase in the time spent (in seconds) in the open arms and/or by the increase in the number of the entries into the open compartments of the maze. The minimum effective dose (MED) was determined for each tested compounds regarding the time spent in the open arms and the number of entries into the open arms. During the test, the known anxiolytic compound I-methyl-5-phenyl-7-chloro-1,3-dihydro-2H-1,4-benzodiazepin-2-one (INN: diazepam) of the Formula (IV)
was used. Treatment of the animals was carried out orally with the doses 0.1, 0.3, 1.0, 3.0 for diazepam and 0.01, 0.1, 1.0 mg/kg for the compounds of the general Formula (I).

Structure (SMILES) | melting point | MED (minimum effective dose), anxiolytic effect in elevated maze test (male Sprague-Dawley rats)
CN1Cc2ccc(Cl)c(Cl)c2S(=O)(=O)N1 [Example 36, 7,8-Dichloro-3-methyl-3,4-dihydrobenzo[1,2,3]thiadiazine-1,1-dioxide] | 189 to 190 °C | 
CCC1c2ccc(Cl)cc2S(=O)(=O)NN1C(C)C (centres unmarked) [Example 30, 4-Ethyl-3-isopropyl-7-chloro-3,4-dihydrobenzo[1,2,3]thia diazine-1,1-dioxide] | 99 to 101 °C | 
CCN1NC(C)c2ccc(Cl)c(Cl)c2S1(=O)=O (centres unmarked) [Example 21, 7,8-Dichloro-2-ethyl-4-methyl-3,4-dihydrobenzo[1,2,3]thiadiazine-1,1-dioxide] | 135 to 136 °C | 
CCN1Cc2cc(OC)ccc2S(=O)(=O)N1 [Example 35, 3-Ethyl-6-methoxy-3,4-dihydrobenzo[1,2,3]thiadiazine-1,1-dioxide] | 180 to 181 °C | 
CCC1NN(C)S(=O)(=O)c2c1ccc(Cl)c2Cl (centres unmarked) [Example 17, 7,8-Dichloro-4-ethyl-2-methyl-3,4-dihydrobenzo[1,2,3]thiadiazine-1,1-dioxide] | 139 to 141 °C | 
CN1Cc2ccccc2S(=O)(=O)N1 [Example 32, 3-Methyl-3,4-dihydrobenzo[1,2,3]thiadiazine-1,1-dioxide] | 176 to 178 °C | 
CCN1NC(C)c2cccc(Cl)c2S1(=O)=O (centres unmarked) [Example 24, 2-Ethyl-8-chloro-4-methyl-3,4-dihydrobenzo[1,2,3]thiadiazine-1,1-dioxide] | 79 to 80 °C | 
CCC1NNS(=O)(=O)c2c1ccc(Cl)c2Cl (centres unmarked) [Example 4, 7,8-Dichloro-4-ethyl-3,4-dihydrobenzo[1,2,3]thiadiazine-1,1-dioxide] | 222 to 224 °C | 
CC1c2ccc(Cl)c(Cl)c2S(=O)(=O)NN1C (centres unmarked) [Example 26, 7,8-Dichloro-3,4-dimethyl-3,4-dihydrobenzo[1,2,3]thiadiazine-1,1-dioxide] | 194 to 195 °C | 
CN1Cc2ccccc2S(=O)(=O)N1C [Example 41, 2,3-Dimethyl-3,4-dihydrobenzo[1,2,3]thiadiazine-1,1-dioxide] | 143 to 145 °C | 
CCN1Cc2cc(OC)ccc2S(=O)(=O)N1C [Example 40, 3-Ethyl-2-methyl-6-methoxy-3,4-dihydrobenzo[1,2,3]thiadiazine-1,1-dioxide] | 123 to 125 °C | 
Cc1cc2c(c(Cl)c1Cl)S(=O)(=O)NNC2C (centres unmarked) [Example 6, 7,8-Dichloro-4,6-dimethyl-3,4-dihydrobenzo[1,2,3]thiadiazine-1,1-dioxide] | 253 to 254 °C | 
CC1NNS(=O)(=O)c2ccccc21 (centres unmarked) [Example 8, 4-Methyl-3,4-dihydrobenzo[1,2,3]thiadiazine-1,1-dioxide] | 150 to 152 °C | 
CN1Cc2ccc(Cl)cc2S(=O)(=O)N1 [Example 37, 7-chloro-3-methyl-3,4-dihydrobenzo[1,2,3]thiadiazine-1,1-dioxide] | 188 to 189 °C | 
CN1C(=O)CN=C(c2ccccc2)c2cc(Cl)ccc21 [Diazepam, I-methyl-5-phenyl-7-chloro-1,3-dihydro-2H-1,4-benzodiazepin-2-one, reference compound] |  | 1.00 mg/kg p.o.
CCC1NN(CC)S(=O)(=O)c2c1ccc(Cl)c2Cl (centres unmarked) [Example 22, 2,4-Diethyl-7,8-dichloro-3,4-dihydrobenzo[1,2,3]thiadiazine-1,1-dioxide] | 118 to 120 °C | 
Cc1cc2c(c(Cl)c1Cl)S(=O)(=O)N(C)NC2C (centres unmarked) [Example 25, 7,8-Dichloro-2,4,6-trimethyl-3,4-dihydrobenzo[1,2,3]thiadiazine-1,1-dioxide] | 141 to 142 °C | 
COc1ccc2c(c1)CN(C)NS2(=O)=O [Example 34, 3-Methyl-6-methoxy-3,4-dihydrobenzo[1,2,3]thiadiazine-1,1-dioxide] | 186 to 187 °C | 
CCN1NS(=O)(=O)c2c(ccc(Cl)c2Cl)C1C (centres unmarked) [Example 27, 7,8-Dichloro-3-ethyl-4-methyl-3,4-dihydrobenzo[1,2,3]thiadiazine-1,1-dioxide] | 172 to 174 °C | 
Cc1cc(Cl)c(Cl)c2c1C(C)N(C)NS2(=O)=O (centres unmarked) [Example 31, 7,8-Dichloro-3,4,5-trimethyl-3,4-dihydrobenzo[1,2,3]thiadiazine-1,1-dioxide] | 236 to 238 °C | 
CC1NN(C)S(=O)(=O)c2c(Cl)cccc21 (centres unmarked) [Example 23, 2,4-Dimethyl-8-chloro-3,4-dihydrobenzo[1,2,3]thiadiazine-1,1-dioxide] | 128 to 130 °C | 

Structure (SMILES) | melting point | MED (minimum effective dose), anxiolytic effect in elevated maze test (male Sprague-Dawley rats)
CCC1NNS(=O)(=O)c2cc(Cl)ccc21 (centres unmarked) [Example 2, 4-Ethyl-7-chloro-3,4-dihydrobenzo[1,2,3]thiadiazine-1,1-dioxide] | 128 to 130 °C | 
CCN1Cc2ccccc2S(=O)(=O)N1 [Example 33, 3-Ethyl-3,4-dihydrobenzo[1,2,3]thiadiazine-1,1-dioxide] | 146 to 147 °C | 
Cc1cc(Cl)c(Cl)c2c1C(C)N(C(C)C)NS2(=O)=O (centres unmarked) [Example 38, 7,8-Dichloro-4,5-dimethyl-3-isopropyl-3,4-dihydrobenzo[1,2,3]thiadiazine-1,1-dioxide] | 167 to 168 °C | 
COc1ccc2c(c1)CN(C)N(C)S2(=O)=O [Example 39, 2,3-Dimethyl-6-methoxy-3,4-dihydrobenzo[1,2,3]thiadiazine-1,1-dioxide] | 142 to 143 °C | 
CC1NNS(=O)(=O)c2c1ccc(Cl)c2Cl (centres unmarked) [Example 3, 7,8-Dichloro-4-methyl-3,4-dihydrobenzo[1,2,3]thiadiazine-1,1-dioxide] | 261 to 263 °C | 0.01 mg/kg p.o.
CC1NNS(=O)(=O)c2c(Cl)cccc21 (centres unmarked) [Example 7, 8-chloro-4-methyl-3,4-dihydrobenzo[1,2,3]thiadiazine-1,1-dioxide] | 202 to 203 °C | 
CCC1c2ccc(Cl)cc2S(=O)(=O)NN1CC (centres unmarked) [Example 29, 3,4-Diethyl-7-chloro-3,4-dihydrobenzo[1,2,3]thiadiazine-1,1-dioxide] | 109 to 111 °C | 
COc1ccc2c(c1Cl)S(=O)(=O)NNC2 [Example 15, 8-chloro-7-methoxy-3,4-dihydrobenzo[1,2,3]thiadiazine-1,1-dioxide] | 209 to 210 °C | 
COc1ccc2c(c1)CNNS2(=O)=O [Example 13, 6-Methoxy-3,4-dihydrobenzo[1,2,3]thiadiazine-1,1-dioxide] | 181 to 182 °C | 
CCCN1NS(=O)(=O)c2c(ccc(Cl)c2Cl)C1C (centres unmarked) [Example 28, 7,8-Dichloro-4-methyl-3-propyl-3,4-dihydrobenzo[1,2,3]thiadiazine-1,1-dioxide] | 164 to 165 °C | 
Cc1cc(Cl)c(Cl)c2c1C(C)NNS2(=O)=O (centres unmarked) [Example 5, 7,8-Dichloro-4,5-dimethyl-3,4-dihydrobenzo[1,2,3]thiadiazine-1,1-dioxide] | 197 to 199 °C | 0.01 mg/kg p.o.
Cc1cc(Cl)c(Cl)c2c1C(C)NN(C)S2(=O)=O (centres unmarked) [Example 18, 7,8-Dichloro-2,4,5-trimethyl-3,4-dihydrobenzo[1,2,3]thiadiazine-1,1-dioxide] | 101 to 102 °C | 
CN1NCc2ccc(Cl)c(Cl)c2S1(=O)=O [Example 20, 7,8-Dichloro-2-methyl-3,4-dihydrobenzo[1,2,3]thiadiazine-1,1-dioxide] | 124 to 125 °C | 0.01 mg/kg p.o.
COc1ccc2c(c1Cl)S(=O)(=O)N(C)NC2C (centres unmarked) [Example 19, 2,4-Dimethyl-8-chloro-7-methoxy-3,4-dihydrobenzo[1,2,3]thiadiazine-1,1-dioxide] | 141 to 143 °C | 
CC1c2ccc(Cl)c(Cl)c2S(=O)(=O)N(C)N1C (centres unmarked) [Example 43, 7,8-Dichloro-2,3,4-trimethyl-3,4-dihydrobenzo[1,2,3]thiadiazine-1,1-dioxide] | 135 to 136 °C | 
COc1ccc2c(c1Cl)S(=O)(=O)NNC2C (centres unmarked) [Example 9, 8-chloro-4-methyl-7-methoxy-3,4-dihydrobenzo[1,2,3]thiadiazine-1,1-dioxide] | 231 to 233 °C | 
CCN1Cc2ccccc2S(=O)(=O)N1C [Example 42, 3-Ethyl-2-methyl-3,4-dihydrobenzo[1,2,3]thiadiazine-1,1-dioxide] | 140 to 142 °C | 
COc1ccc2c(c1OC)S(=O)(=O)NNC2C (centres unmarked) [Example 10, 7,8-Dimethoxy-4-methyl-3,4-dihydrobenzo[1,2,3]thiadiazine-1,1-dioxide] | 211 to 213 °C | 
O=S1(=O)NNCc2ccccc21 [Example 14, 3,4-Dihydrobenzo[1,2,3]thiadiazine-1,1-dioxide] | 134 to 136 °C | 
COc1cccc2c1S(=O)(=O)NNC2C (centres unmarked) [Example 11, 4-Methyl-8-methoxy-3,4-dihydrobenzo[1,2,3]thiadiazine-1,1-dioxide] | 231 to 233 °C | 
